The series is described as follows: solvent given as SMILES.

Structures are written as SMILES.

`CCN(CC)c1ccc2cc(-c3csc(NC(C)=O)c3C#N)c(=O)oc2c1` yielded an emission maximum (in C1CCOC1) of 457 nm; an emission maximum (in CO) of 477 nm; an emission maximum (in CS(C)=O) of 479 nm; an emission maximum (in Cc1ccccc1) of 448 nm; an emission maximum (in ClCCl) of 463 nm.

With `O=c1ccc2ccccc2o1`, the emission maximum (in O) was 385 nm.

In the case of `CCOC(=O)c1c(-c2cc3ccc(OC)cc3oc2=O)nn(-c2cccc(Cl)c2)c1C(=O)OCC`, the emission maximum (in ClCCl) is listed as 422 nm.

For `Cc1cc2c3ccccc3oc2c2c1c1ccccc1n2-c1ccc(C#N)cc1`, the emission maximum runs as follows: (in CCOC(C)=O) 379 nm; (in CS(C)=O) 440 nm; (in ClCCl) 420 nm.

With `N#CC(C#N)=Cc1ccc(-c2ccc(O)c(-c3nc4ccccc4s3)c2)o1`, the emission maximum runs as follows: (in CCO) 632 nm; (in ClCCl) 612 nm; (in O) 652 nm.

Consider `CCCCCCCCn1c2ccccc2c(=O)c2ccccc21`, for which the emission maximum (in CS(C)=O) came to 414 nm.

Turning to `CCOC(=O)CCCCCn1c2ccccc2c(=O)c2cc3c(cc21)c(=O)c1ccccc1n3CC`, the emission maximum (in CO) was determined as 550 nm.

Take `Oc1c(-c2cccs2)cccc1-c1nc2ccccc2s1`: the emission maximum is 585 nm (in CCO), 585 nm (in ClCCl) and 587 nm (in O).

With `CC1(C)c2ccccc2N(c2ccc(-c3cccc(C#N)c3)cc2)c2ccccc21`, the emission maximum reads like this: (in Cc1ccccc1) 431 nm; (in N#Cc1ccc2c(c1)c1ccccc1n2-c1cccc(-n2c3ccccc3c3ccccc32)c1) 436 nm.

Regarding `c1cc2c3c(cccc3c1)-c1c-2c2ccccc2c2ccccc12`, the emission maximum (in CCCCCCC) was 536 nm.

In turn, `CCOC(=O)CN(CC(=O)OCC)c1ccc(-c2cc(-c3ccccn3)nc(-c3ccccn3)c2)cc1` came in with an emission maximum (in CC#N) of 452 nm; an emission maximum (in CCOC(C)=O) of 419 nm; an emission maximum (in CN(C)C=O) of 458 nm; an emission maximum (in CS(C)=O) of 466 nm; an emission maximum (in c1ccccc1) of 400 nm.

Take `Fc1c(-n2c3ccccc3c3ccccc32)c(-c2nnc(-c3ccccc3)o2)c(-n2c3ccccc3c3ccccc32)c(-n2c3ccccc3c3ccccc32)c1-n1c2ccccc2c2ccccc21`: the emission maximum (in Cc1ccccc1) is recorded as 483 nm.

`CC1CCC(=CS/C=C/c2ccc(-c3ccc(/C=C/SC=C4CCC(C)CC4)cc3)cc2)CC1` (stereo not drawn) returned an emission maximum (in ClCCl) of 432 nm.

Turning to `C(#Cc1ccccc1)C(C#Cc1ccccc1)=Cc1ccc2cc(C=C(C#Cc3ccccc3)C#Cc3ccccc3)ccc2c1`, for the setting “in ClC(Cl)Cl”, the emission maximum is 473 nm.

`Cc1ccc(-c2c3nc(c(-c4ccc(C)cc4)c4ccc([nH]4)c(-c4ccc(OC(=O)C(C)c5ccc(-c6ccccc6)c(F)c5)cc4)c4nc(c(-c5ccc(C)cc5)c5ccc2[nH]5)C=C4)C=C3)cc1` (stereo not drawn) came in with an emission maximum (in ClCCl) of 653 nm.

In the case of `F[B-]1(F)Oc2c(-c3cccc4c3O[B-](F)(F)[n+]3c(-c5ccccc5)c(-c5ccccc5)n(-c5ccc(C(F)(F)F)cc5)c3-4)cccc2-c2n(-c3ccc(C(F)(F)F)cc3)c(-c3ccccc3)c(-c3ccccc3)[n+]21`, where the note is “in C1CCOC1”, the emission maximum stood at 399 nm.

As to `CCCCC1(CCCC)c2cc(C#Cc3ccc(C=C4c5ccccc5-c5ccccc54)cc3)ccc2-c2ccc(C#Cc3ccc(C=C4c5ccccc5-c5ccccc54)cc3)cc21`, the emission maximum (in C1CCOC1) stood at 406 nm.

Under “in CN(C)C=O”, `Cc1ccc2nc(-c3cccc4nc(C)[nH]c(=O)c34)[nH]c2c1` gave an emission maximum of 431 nm.

`O=C1c2ccccc2NC(c2ccccc2)N1Cc1ccccc1` (stereo not drawn): the emission maximum is, setting by setting: (in CC#N) 407 nm; (in CCCCCCCCCCCCCCCC) 383 nm; (in CO) 442 nm; (in ClC(Cl)Cl) 398 nm; (in c1ccccc1) 393 nm.

`Cc1cc2sccc2c2[nH]c3ccccc3c12` returned an emission maximum (in ClCCl) of 346 nm.

As to `COc1ccc2cc([C@H](C)C(=O)O)ccc2c1`, the emission maximum by setting is: (in C1CCOC1) 351.7 nm; (in CC#N) 352.7 nm; (in CC(C)O) 351.3 nm; (in CCCCO) 351.4 nm; (in CCO) 352.3 nm; (in CO) 352.2 nm. The emission maximum was determined as 353.1 nm (in ClCCl) and 355.5 nm (in O).

The compound `c1cc2ccc3[se]c4ccc5cccc6c(c1)c2c3c4c56` displayed an emission maximum (in ClC(Cl)Cl) of 424 nm.

With `FC(F)(F)c1c(-n2c3ccccc3c3ccccc32)c(-n2c3ccccc3c3ccccc32)c(-n2c3ccccc3c3ccccc32)c(-n2c3ccccc3c3ccccc32)c1-n1c2ccccc2c2ccccc21`, the emission maximum (in ClCCl) is on record as 481 nm.

Where the note is “in O”, `CC(=O)Nc1ccc2c(c1)c(=O)c1ccccc1n2CCCCCC(=O)O` came in with an emission maximum of 450 nm.

Regarding `CCCCCCCCCCCCn1cccc1/C=C/c1cc(OCCCC)c(/C=C/c2cccn2CCCCCCCCCCCC)cc1OCCCC`, the emission maximum (in Cc1ccccc1) turned out to be 472 nm.

For the compound `CCCCCCOc1ccc2c(c1)-c1cc3c(cc1[Si]2(C)C)-c1ccccc1[Si]3(C)C`, the emission maximum (in ClCCl) stood at 387 nm.

In the case of `c1ccc(N(c2ccccc2)c2ccc(-c3ccncn3)cc2)cc1`, for the setting “in ClCCl”, the emission maximum stood at 482 nm.

Regarding `COc1ccc2cc3c(C)cc(=O)oc3cc2c1`, the emission maximum is 453 nm (in CC#N); 464 nm (in CCO); 435 nm (in CCOC(C)=O); 469 nm (in CO); 443 nm (in ClC(Cl)Cl); 496 nm (in OCC(F)(F)F).

For the setting “in C1CCOC1”, `COc1cc2c(cc1-c1cccs1)Cc1c3c(c4c(c1-2)-c1cc(OC)c(-c2cccs2)cc1C4)C(=O)N(CCC(C)C)C3=O` yielded an emission maximum of 505 nm.

Take `COc1ccc(-c2cc3c(s2)c(C(C)=O)cc(=O)n3Cc2ccccc2)cc1`: the emission maximum (in CC#N) turned out to be 515 nm and the emission maximum (in ClCCl) is recorded as 512 nm.

Turning to `C#CCNC1=C2C(C)=CC(C)=[N+]2[B-](F)(F)n2c(C)cc(C)c21`, the emission maximum by setting is: (in C1CCCCC1) 501.5 nm; (in CC(C)=O) 496 nm; (in CCOC(C)=O) 497 nm; (in CO) 496 nm; (in OCC(F)(F)F) 494.5 nm.

Take `CC1=N/C(=C\c2ccncc2)C(=O)N1C`: the emission maximum reads like this: (in C1COCCO1) 439 nm; (in CC#N) 452 nm; (in CCO) 453 nm; (in CCOC(C)=O) 442 nm; (in O) 464 nm.

For the compound `C(=C\c1cc(/C=C/c2ccc(N(c3ccccc3)c3ccccc3)cc2)nc(/C=C/c2ccc(N(c3ccccc3)c3ccccc3)cc2)n1)/c1ccc(N(c2ccccc2)c2ccccc2)cc1`, the emission maximum (in C1CCOC1) was determined as 514 nm; the emission maximum (in CC#N) is recorded as 589 nm; the emission maximum (in CC(C)=O) was 555 nm; the emission maximum (in CCCCCCC) stood at 460 nm; the emission maximum (in CS(C)=O) is 586 nm; the emission maximum (in Cc1ccccc1) is 479 nm. This compound also gave an emission maximum (in ClCCl) of 544 nm.

`CC(=O)O[B-]1(OC(C)=O)OC(/C=C/c2cccc3ccccc23)=CC(/C=C/c2cccc3ccccc23)=[O+]1` returned an emission maximum (in C1CCOC1) of 539 nm; an emission maximum (in CC#N) of 569 nm; an emission maximum (in CC(C)=O) of 553 nm; an emission maximum (in CS(C)=O) of 574 nm; an emission maximum (in Cc1ccccc1) of 529 nm; an emission maximum (in ClC(Cl)Cl) of 551 nm. Where the note is “in ClCCl”, this compound returned an emission maximum of 554 nm.

`COc1ccc(/C=C(\C)c2nc3ccccc3s2)cc1`: the emission maximum was 400 nm (in C1CCCCC1) and 420 nm (in CO).

As for `COc1ccc(/C=C/C2=CC(/C=C/c3ccc(OC)c4ccccc34)=[O+][B-](F)(F)O2)c2ccccc12`, the emission maximum (in CC#N) was 651 nm; the emission maximum (in CC(C)=O) is 622 nm; the emission maximum (in CCOC(C)=O) was determined as 590 nm; the emission maximum (in CCOCC) was 587 nm; the emission maximum (in ClC(Cl)(Cl)Cl) came to 561 nm; the emission maximum (in ClCCl) turned out to be 616 nm.

Consider `CCOC(=O)C1=CNC=C(C(=O)OCC)C1c1ccccc1`, for which the emission maximum came to 412 nm (in C1CCOC1) and 423 nm (in CO).

As to `C1=Cc2ccc3ccccc3c2NB1c1ccccc1`, the emission maximum (in C1CCCCC1) came out at 383 nm.

`Cc1cc(C)c(B2c3cc(C(C)(C)C)cc4ccc5ccc6cc(C(C)(C)C)cc2c6c5c34)c(C)c1`: the emission maximum (in C1CCCCC1) is on record as 430 nm.

On to `Cn1c(=O)c(/N=N/c2ccc(Nc3ccc([N+](=O)[O-])cc3S(=O)(=O)O)cc2)c(O)c2ccccc21`, for which the emission maximum is, setting by setting: (in C1CCOC1) 615 nm; (in CC(C)=O) 617 nm; (in CCOC(C)=O) 610 nm; (in CO) 619 nm; (in CS(C)=O) 622 nm; (in Cc1ccccc1) 605 nm. Besides, the emission maximum runs as follows: (in ClCCl) 617 nm; (in O) 636 nm.

As to `CC(=O)Nc1cc2ccc3cccc4ccc(c1)c2c34`, the emission maximum is, setting by setting: (in CC#N) 388 nm; (in CCCCOCCCC) 389 nm; (in CO) 387 nm.

`CC[B-]1(CC)c2cccc3cc4ccccc4c(c23)-c2cccc(C)[n+]21` returned an emission maximum (in ClCCl) of 538 nm.

With `O=C(N/N=C/c1ccccc1O)c1ccccc1`, the emission maximum by setting is: (in C1CCOC1) 306 nm; (in CC#N) 373 nm; (in CC(C)=O) 426 nm; (in CCO) 429 nm; (in CN(C)C=O) 458 nm; (in CS(C)=O) 552 nm. Also, the emission maximum (in ClCCl) is given as 392 nm.

Consider `CC(=O)OCCN1C(=O)c2cccc3c(Oc4ccc(C#N)cc4)ccc(c23)C1=O`, for which, where the note is “in ClC(Cl)Cl”, the emission maximum is listed as 410 nm.

For `N#CSC1=CC2=C(c3c(Cl)cccc3Cl)c3cc(SC#N)c(NCc4ccccc4)n3[B-](F)(F)[N+]2=C1NCc1ccccc1`, the emission maximum by setting is: (in CC#N) 648 nm; (in CCCCCC) 655 nm; (in CCOC(C)=O) 654 nm; (in CO) 646 nm; (in ClCCl) 656 nm.

The values are drawn from the Deep4Chem optical property database.
